Test results from patent US11702404B2, “GLP-1R modulating compounds” (priority 2019, dated 2023).

Columns and labels:
[1] = Microsomal stability, human liver microsomes (predicted hepatic clearance); details: predicted from in vitro microsomal stability data
GLP-1R = GLP-1R (Homo sapiens, UniProt P43220); experiment: GLP-1R activation: cAMP increase in CHO cells stably expressing GLP-1R; format: cell-based; details: cAMP increase, CHO cells stably expressing GLP-1R, 10 point dose response, 30 minutes incubation; read-out: EC50
Sequence of GLP-1R (P43220 24-463): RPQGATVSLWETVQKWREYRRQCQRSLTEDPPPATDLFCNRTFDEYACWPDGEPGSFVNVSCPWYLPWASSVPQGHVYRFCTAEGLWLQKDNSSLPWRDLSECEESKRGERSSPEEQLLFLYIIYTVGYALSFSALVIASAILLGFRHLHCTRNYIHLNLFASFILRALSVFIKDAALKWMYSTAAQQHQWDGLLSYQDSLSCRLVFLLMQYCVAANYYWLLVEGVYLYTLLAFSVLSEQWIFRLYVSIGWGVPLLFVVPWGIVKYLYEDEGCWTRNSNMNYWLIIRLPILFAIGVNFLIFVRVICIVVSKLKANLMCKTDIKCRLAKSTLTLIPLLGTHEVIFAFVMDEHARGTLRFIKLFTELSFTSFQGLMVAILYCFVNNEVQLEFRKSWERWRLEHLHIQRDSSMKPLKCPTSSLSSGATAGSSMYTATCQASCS

Row | Compound | Predicted Hepatic Clearance (Pred. Cl.) [1] | EC50 (GLP-1R)
1 | CCOc1cc(C#N)ccc1COc1cccc(-c2ccc(Cc3nc4ccc(C(=O)O)cc4n3CCOC)c(F)c2)n1 [Example 238, 2-(4-(6-((4-cyano-2-ethoxybenzyl)oxy)pyridin-2-yl)-2-fluorobenzyl)-1-(2-methoxyethyl)-1H-benzo[d]imidazole-6-carboxylic acid] | 8.67 mL/min/kg | 12 nM
2 | COCCn1c(Cc2ccc(-c3cccc(OCc4ccc(C#N)cc4F)n3)cc2Br)nc2ccc(C(=O)O)cc21 [Example 239, 2-(2-bromo-4-(6-((4-cyano-2-fluorobenzyl)oxy)pyridin-2-yl)benzyl)-1-(2-methoxyethyl)-1H-benzo[d]imidazole-6-carboxylic] | <1.83 mL/min/kg | 7.49 nM
3 | COCCn1c(Cc2ccc(-c3cccc(OCc4ccc(C#N)cc4F)n3)cc2C#CC2(CO)CC2)nc2ccc(C(=O)O)cc21 [Example 240, 2-(4-(6-((4-cyano-2-fluorobenzyl)oxy)pyridin-2-yl)-2-((1-(hydroxymethyl)cyclopropyl)ethynyl)benzyl)-1-(2-methoxyethyl)-1H-benzo[d]imidazole-6-carboxylic acid] | 13.7 mL/min/kg | 6.82 nM
4 | COCCn1c(Cc2ccc(-c3cccc(OCc4cccc5c4OCCC5)n3)cc2F)nc2ccc(C(=O)O)cc21 [Example 241, 2-(4-(6-(chroman-8-ylmethoxy)pyridin-2-yl)-2-fluorobenzyl)-1-(2-methoxyethyl)-1H-benzo[d]imidazole-6-carboxylic acid] | 9.83 mL/min/kg | 35.1 nM
5 | CCn1c(Cc2ccc(-c3cccc(OCc4ccc(C#N)cc4F)n3)cc2F)nc2ccc(C(=O)O)cc21 [Example 242, 2-(4-(6-((4-cyano-2-fluorobenzyl)oxy)pyridin-2-yl)-2-fluorobenzyl)-1-ethyl-1H-benzo[d]imidazole-6-carboxylic acid] | <1.83 mL/min/kg | 18.4 nM
6 | COCCn1c(Cc2ccc(-c3cccc(OCc4ccc(Cl)cc4OCC(F)F)n3)cc2F)nc2ccc(C(=O)O)cc21 [Example 244, 2-(4-(6-((4-chloro-2-(2,2-difluoroethoxy)benzyl)oxy)pyridin-2-yl)-2-fluorobenzyl)-1-(2-methoxyethyl)-1H-benzo[d]imidazole-6-carboxylic acid] | 5.67 mL/min/kg | 159 nM
7 | COCCn1c(Cc2ccc(-c3cccc(OC4CCOc5cc(C#N)ccc54)n3)cc2F)nc2ccc(C(=O)O)cc21 (stereo not drawn) [Example 246, 2-(4-(6-((7-cyanochroman-4-yl)oxy)pyridin-2-yl)-2-fluorobenzyl)-1-(2-methoxyethyl)-1H-benzo[d]imidazole-6-carboxylic acid] | 4.67 mL/min/kg | 1110 nM
8 | COCCn1c(Cc2ccc(-c3cccc(OCc4ccc(Cl)cc4OC)n3)cc2F)nc2ccc(C(=O)O)cc21 [Example 247, 2-(4-(6-((4-chloro-2-methoxybenzyl)oxy)pyridin-2-yl)-2-fluorobenzyl)-1-(2-methoxyethyl)-1H-benzo[d]imidazole-6-carboxylic acid] | 6.83 mL/min/kg | 2.2 nM
9 | COCCn1c(Cc2ccc(-c3cccc(OCc4ccccc4SC(F)(F)F)n3)cc2F)nc2ccc(C(=O)O)cc21 [Example 248, 2-(2-fluoro-4-(6-((2-((trifluoromethyl)thio)benzyl)oxy)pyridin-2-yl)benzyl)-1-(2-methoxyethyl)-1H-benzo[d]imidazole-6-carboxylic acid] | 17.8 mL/min/kg | 3560 nM
10 | COCCn1c(Cc2ccc(-c3cccc(OCc4ccc5c(c4)OC(F)(F)O5)n3)cc2F)nc2ccc(C(=O)O)cc21 [Example 250, 2-(4-(6-((2,2-difluorobenzo[d][1,3]dioxol-5-yl)methoxy)pyridin-2-yl)-2-fluorobenzyl)-1-(2-methoxyethyl)-1H-benzo[d]imidazole-6-carboxylic acid] | <1.83 mL/min/kg | 11.7 nM
11 | COCCn1c(Cc2ccc(-c3cccc(OCc4cc(F)c(C#N)cc4OC)n3)cc2F)nc2ccc(C(=O)O)cc21 [Example 251, 2-(4-(6-((4-cyano-5-fluoro-2-methoxybenzyl)oxy)pyridin-2-yl)-2-fluorobenzyl)-1-(2-methoxyethyl)-1H-benzo[d]imidazole-6-carboxylic acid] | <1.83 mL/min/kg | 3.13 nM

More lines, in order of falling EC50 (GLP-1R), values ahead:

Row | Predicted Hepatic Clearance (Pred. Cl.) [1] | EC50 (GLP-1R) | Compound
12 | 15.5 mL/min/kg | 172 nM | COCCn1c(Cc2ccc(-c3cccc(OCc4ccccc4SC)n3)cc2F)nc2ccc(C(=O)O)cc21 [Example 249, 2-(2-fluoro-4-(6-((2-(methylthio)benzyl)oxy)pyridin-2-yl)benzyl)-1-(2-methoxyethyl)-1H-benzo[d]imidazole-6-carboxylic acid]
13 | 4.5 mL/min/kg | 140 nM | COCCn1c(Cc2ccc(-c3cccc(OCc4ccc(C#N)cc4OCC(F)F)n3)cc2F)nc2ccc(C(=O)O)cc21 [Example 245, 2-(4-(6-((4-cyano-2-(2,2-difluoroethoxy)benzyl)oxy)pyridin-2-yl)-2-fluorobenzyl)-1-(2-methoxyethyl)-1H-benzo[d]imidazole-6-carboxylic acid]
14 | <1.83 mL/min/kg | 68.6 nM | COCCn1c(Cc2ccc(-c3cccc(OCc4ccc(C#N)cc4F)n3)cc2C#Cc2cncnc2)nc2ccc(C(=O)O)cc21 [Example 254, 2-(4-(6-((4-cyano-2-fluorobenzyl)oxy)pyridin-2-yl)-2-(pyrimidin-5-ylethynyl)benzyl)-1-(2-methoxyethyl)-1H-benzo[d]imidazole-6-carboxylic acid]
15 | 5.33 mL/min/kg | 30.6 nM | COCCn1c(Cc2ccc(-c3cccc(OCc4ccc(F)cc4)n3)cc2F)nc2ccc(C(=O)O)cc21 [Example 256, 2-(2-fluoro-4-(6-((4-fluorobenzyl)oxy)pyridin-2-yl)benzyl)-1-(2-methoxyethyl)-1H-benzo[d]imidazole-6-carboxylic acid]
16 | <1.83 mL/min/kg | 3.78 nM | COCCn1c(Cc2ccc(-c3cccc(OCc4ccc(F)cc4OC)n3)cc2F)nc2ccc(C(=O)O)cc21 [Example 252, 2-(2-fluoro-4-(6-((4-fluoro-2-methoxybenzyl)oxy)pyridin-2-yl)benzyl)-1-(2-methoxyethyl)-1H-benzo[d]imidazole-6-carboxylic acid]
17 | 8.17 mL/min/kg | 3.31 nM | COCCn1c(Cc2ccc(-c3cccc(OCc4ccc(C#N)cc4F)n3)cc2C#CCCO)nc2ccc(C(=O)O)cc21 [Example 255, 2-(4-(6-((4-cyano-2-fluorobenzyl)oxy)pyridin-2-yl)-2-(4-hydroxybut-1-yn-1-yl)benzyl)-1-(2-methoxyethyl)-1H-benzo[d]imidazole-6-carboxylic acid]
18 | 10.2 mL/min/kg | 0.88 nM | COCCn1c(Cc2ccc(-c3cccc(OCc4ccc(C#N)cc4OC)n3)cc2F)nc2ccc(C(=O)O)cc21 [Example 243, 2-(4-(6-((4-cyano-2-methoxybenzyl)oxy)pyridin-2-yl)-2-fluorobenzyl)-1-(2-methoxyethyl)-1H-benzo[d]imidazole-6-carboxylic acid]
